Results reported in ChEMBL document CHEMBL5465560, “Selectivity Literature for EUbOPEN Chemogenomic Library” (2024).
Each block holds one molecule with its values, some of them ahead of it.

Experiments:
[1] = biological target: Serine/threonine-protein kinase PLK3 (Homo sapiens, UniProt Q9H4B4); settings: at 10 µM
[2] = biological target: T1, Ephrin type-B receptor 1 (Homo sapiens) (UniProt P54762); test: Selectivity interaction (Ambit KINOMEscan and KiNATiv profiling in Jurkat cells) EUB0000090b EPHB1; assay type: cell-based; settings: at 1 µM
T1 sequence (whole entry): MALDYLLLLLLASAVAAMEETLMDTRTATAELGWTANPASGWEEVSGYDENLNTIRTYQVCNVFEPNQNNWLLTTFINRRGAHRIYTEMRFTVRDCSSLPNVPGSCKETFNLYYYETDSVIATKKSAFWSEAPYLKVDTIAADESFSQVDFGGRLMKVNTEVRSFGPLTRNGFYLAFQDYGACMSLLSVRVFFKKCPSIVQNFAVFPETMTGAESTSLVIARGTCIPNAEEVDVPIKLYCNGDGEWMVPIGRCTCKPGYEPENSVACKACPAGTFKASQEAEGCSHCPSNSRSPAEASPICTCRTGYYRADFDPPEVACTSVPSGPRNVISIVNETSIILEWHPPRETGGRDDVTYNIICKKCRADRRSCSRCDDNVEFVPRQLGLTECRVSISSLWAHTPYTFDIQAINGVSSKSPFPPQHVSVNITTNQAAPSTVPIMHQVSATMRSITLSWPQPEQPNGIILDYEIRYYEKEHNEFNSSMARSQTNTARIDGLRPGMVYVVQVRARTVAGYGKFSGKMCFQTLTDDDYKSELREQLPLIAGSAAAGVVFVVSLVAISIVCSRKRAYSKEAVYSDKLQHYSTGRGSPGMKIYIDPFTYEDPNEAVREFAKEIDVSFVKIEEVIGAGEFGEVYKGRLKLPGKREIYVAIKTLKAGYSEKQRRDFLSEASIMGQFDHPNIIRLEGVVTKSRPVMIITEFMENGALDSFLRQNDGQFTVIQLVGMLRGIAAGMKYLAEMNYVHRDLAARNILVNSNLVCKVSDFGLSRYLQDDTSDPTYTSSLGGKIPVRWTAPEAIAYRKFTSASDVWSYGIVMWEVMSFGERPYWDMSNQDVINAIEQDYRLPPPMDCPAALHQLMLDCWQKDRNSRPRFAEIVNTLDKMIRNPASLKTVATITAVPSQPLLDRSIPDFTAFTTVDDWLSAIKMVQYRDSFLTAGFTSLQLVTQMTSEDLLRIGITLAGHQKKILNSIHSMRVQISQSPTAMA

[3] = biological target: T2, Tyrosine-protein kinase TXK (Homo sapiens) (UniProt P42681); test: Selectivity interaction (KinomeScan (DiscoverX)) EUB0001619a TXK; settings: at 1 µM
T2 sequence (whole entry): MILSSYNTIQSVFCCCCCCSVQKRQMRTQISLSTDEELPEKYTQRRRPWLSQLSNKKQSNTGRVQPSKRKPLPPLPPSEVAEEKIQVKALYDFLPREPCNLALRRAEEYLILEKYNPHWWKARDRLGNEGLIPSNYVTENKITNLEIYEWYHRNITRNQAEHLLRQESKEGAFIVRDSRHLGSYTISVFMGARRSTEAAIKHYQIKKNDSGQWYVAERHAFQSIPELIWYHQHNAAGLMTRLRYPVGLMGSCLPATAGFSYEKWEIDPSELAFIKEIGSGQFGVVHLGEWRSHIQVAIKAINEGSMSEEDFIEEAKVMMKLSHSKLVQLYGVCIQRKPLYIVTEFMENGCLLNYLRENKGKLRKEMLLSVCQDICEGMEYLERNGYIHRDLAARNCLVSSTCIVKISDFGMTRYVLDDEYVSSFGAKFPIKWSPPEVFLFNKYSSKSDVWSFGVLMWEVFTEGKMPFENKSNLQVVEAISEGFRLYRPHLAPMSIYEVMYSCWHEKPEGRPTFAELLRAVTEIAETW

[4] = biological target: Phosphatidylinositol 4-phosphate 5-kinase type-1 alpha (Homo sapiens) (UniProt Q99755); test: Selectivity interaction (KinomeScan (DiscoverX)) EUB0000045b PIP5K1A
Phosphatidylinositol 4-phosphate 5-kinase type-1 alpha (Homo sapiens), sequence (Q99755 whole entry): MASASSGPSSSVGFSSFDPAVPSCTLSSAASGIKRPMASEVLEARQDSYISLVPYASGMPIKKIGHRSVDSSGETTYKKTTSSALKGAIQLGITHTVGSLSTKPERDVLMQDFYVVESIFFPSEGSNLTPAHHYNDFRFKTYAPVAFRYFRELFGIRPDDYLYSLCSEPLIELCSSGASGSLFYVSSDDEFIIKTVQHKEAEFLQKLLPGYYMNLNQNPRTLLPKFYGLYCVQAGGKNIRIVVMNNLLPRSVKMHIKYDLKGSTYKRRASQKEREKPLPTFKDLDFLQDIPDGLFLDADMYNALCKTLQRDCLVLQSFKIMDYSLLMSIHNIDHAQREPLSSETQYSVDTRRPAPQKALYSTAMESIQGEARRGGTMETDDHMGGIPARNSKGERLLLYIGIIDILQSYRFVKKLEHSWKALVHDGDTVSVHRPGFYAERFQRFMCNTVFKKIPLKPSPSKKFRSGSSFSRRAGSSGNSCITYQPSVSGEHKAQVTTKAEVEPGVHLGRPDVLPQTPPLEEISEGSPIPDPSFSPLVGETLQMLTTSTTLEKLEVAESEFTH

[5] = biological target: T3, Serine/threonine-protein kinase BRSK2 (Homo sapiens) (UniProt Q8IWQ3); test: Selectivity interaction (Upstate Kinase Profiler service (Millipore)) EUB0000056c BRSK2; settings: at 1 µM
T3 sequence (whole entry): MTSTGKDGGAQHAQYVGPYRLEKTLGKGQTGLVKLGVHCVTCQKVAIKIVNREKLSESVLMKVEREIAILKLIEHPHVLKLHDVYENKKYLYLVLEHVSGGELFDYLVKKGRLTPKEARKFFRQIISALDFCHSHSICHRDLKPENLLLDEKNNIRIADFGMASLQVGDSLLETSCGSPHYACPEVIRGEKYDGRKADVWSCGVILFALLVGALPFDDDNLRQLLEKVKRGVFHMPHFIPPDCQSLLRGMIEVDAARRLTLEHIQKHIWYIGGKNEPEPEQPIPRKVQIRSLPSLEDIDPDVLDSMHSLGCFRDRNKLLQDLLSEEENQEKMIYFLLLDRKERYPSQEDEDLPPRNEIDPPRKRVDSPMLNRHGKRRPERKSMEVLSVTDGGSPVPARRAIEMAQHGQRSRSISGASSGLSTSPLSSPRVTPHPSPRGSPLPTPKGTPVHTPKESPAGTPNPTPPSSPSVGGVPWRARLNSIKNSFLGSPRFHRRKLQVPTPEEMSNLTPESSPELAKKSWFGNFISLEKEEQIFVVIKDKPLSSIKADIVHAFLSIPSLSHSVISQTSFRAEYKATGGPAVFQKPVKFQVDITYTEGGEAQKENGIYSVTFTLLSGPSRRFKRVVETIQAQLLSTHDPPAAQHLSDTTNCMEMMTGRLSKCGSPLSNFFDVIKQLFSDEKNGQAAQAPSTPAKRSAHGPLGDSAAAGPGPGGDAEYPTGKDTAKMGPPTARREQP

[6] = biological target: Protein polybromo-1 (Homo sapiens) (UniProt Q86U86); test: Selectivity interaction (Bromodomain panel (DSF asssay)) EUB0000270b PBRM1
Protein polybromo-1 (Homo sapiens), sequence (Q86U86 whole entry): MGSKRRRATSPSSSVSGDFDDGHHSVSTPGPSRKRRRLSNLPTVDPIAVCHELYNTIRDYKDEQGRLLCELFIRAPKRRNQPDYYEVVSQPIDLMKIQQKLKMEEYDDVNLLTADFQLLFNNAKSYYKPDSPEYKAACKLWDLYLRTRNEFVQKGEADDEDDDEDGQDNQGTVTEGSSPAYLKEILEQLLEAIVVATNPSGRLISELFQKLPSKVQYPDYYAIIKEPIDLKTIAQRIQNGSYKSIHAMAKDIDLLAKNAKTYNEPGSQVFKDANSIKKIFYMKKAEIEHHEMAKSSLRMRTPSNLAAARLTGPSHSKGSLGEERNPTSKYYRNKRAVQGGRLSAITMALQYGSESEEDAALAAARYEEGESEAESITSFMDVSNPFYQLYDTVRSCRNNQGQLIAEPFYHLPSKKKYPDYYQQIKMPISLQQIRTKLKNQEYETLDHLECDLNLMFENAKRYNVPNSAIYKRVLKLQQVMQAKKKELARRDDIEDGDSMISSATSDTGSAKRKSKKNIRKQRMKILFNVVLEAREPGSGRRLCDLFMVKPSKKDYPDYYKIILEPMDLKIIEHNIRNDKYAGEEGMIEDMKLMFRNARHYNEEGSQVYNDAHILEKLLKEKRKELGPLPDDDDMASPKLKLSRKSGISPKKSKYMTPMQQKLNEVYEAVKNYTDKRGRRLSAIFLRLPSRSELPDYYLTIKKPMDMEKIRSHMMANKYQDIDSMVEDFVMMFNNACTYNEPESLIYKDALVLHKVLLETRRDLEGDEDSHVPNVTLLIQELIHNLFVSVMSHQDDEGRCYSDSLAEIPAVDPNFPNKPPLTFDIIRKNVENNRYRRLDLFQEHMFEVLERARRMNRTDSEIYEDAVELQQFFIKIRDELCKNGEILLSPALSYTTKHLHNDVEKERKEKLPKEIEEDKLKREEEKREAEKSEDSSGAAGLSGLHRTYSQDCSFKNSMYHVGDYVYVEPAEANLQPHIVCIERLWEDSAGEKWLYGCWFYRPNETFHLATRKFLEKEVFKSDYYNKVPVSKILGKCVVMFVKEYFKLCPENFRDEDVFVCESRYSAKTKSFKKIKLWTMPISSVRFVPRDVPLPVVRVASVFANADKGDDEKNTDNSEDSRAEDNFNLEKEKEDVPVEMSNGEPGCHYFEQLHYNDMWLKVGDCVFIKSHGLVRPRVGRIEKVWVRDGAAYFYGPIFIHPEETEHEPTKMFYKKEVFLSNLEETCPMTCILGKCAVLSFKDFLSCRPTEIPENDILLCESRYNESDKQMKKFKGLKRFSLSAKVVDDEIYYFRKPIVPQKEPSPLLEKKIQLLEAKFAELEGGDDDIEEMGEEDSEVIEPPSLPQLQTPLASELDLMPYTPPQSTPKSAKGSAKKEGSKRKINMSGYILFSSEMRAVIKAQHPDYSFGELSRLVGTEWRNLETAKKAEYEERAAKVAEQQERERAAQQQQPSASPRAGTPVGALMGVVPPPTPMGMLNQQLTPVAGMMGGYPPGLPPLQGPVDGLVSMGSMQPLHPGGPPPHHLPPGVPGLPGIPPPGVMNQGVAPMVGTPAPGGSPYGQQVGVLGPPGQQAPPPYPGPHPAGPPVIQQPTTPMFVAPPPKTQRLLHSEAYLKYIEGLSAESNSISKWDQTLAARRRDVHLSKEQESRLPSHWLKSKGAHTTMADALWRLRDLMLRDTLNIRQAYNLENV

[7] = biological target: Muscarinic acetylcholine receptor M3 (Homo sapiens, UniProt P20309); test: Selectivity interaction (Muscarinic M3 receptor assay, human recombinant ) EUB0000877a CHRM3
Muscarinic acetylcholine receptor M3, sequence (P20309 whole entry): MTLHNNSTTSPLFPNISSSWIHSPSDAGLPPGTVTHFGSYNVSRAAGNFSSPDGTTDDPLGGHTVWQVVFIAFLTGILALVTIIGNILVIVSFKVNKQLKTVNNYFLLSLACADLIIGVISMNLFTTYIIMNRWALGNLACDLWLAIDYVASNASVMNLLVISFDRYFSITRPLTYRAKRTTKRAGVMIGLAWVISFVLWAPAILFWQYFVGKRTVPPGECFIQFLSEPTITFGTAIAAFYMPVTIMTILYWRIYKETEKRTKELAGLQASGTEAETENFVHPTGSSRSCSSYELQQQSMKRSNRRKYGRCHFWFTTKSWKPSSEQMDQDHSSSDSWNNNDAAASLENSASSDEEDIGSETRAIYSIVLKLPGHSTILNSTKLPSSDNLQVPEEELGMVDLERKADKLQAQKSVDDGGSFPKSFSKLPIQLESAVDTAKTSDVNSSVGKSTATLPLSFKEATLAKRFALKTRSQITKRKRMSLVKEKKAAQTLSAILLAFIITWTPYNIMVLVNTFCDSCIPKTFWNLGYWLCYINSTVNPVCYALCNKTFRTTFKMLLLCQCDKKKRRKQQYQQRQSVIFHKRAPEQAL

[8] = biological target: Tyrosine-protein kinase Lck (Homo sapiens, UniProt P06239); test: Selectivity interaction (Panel of kinases, GPCRs, ion channels and transporters (enzymatic assay)) EUB0000266bCl LCK
Tyrosine-protein kinase Lck, sequence (P06239 2-509 limits assumed): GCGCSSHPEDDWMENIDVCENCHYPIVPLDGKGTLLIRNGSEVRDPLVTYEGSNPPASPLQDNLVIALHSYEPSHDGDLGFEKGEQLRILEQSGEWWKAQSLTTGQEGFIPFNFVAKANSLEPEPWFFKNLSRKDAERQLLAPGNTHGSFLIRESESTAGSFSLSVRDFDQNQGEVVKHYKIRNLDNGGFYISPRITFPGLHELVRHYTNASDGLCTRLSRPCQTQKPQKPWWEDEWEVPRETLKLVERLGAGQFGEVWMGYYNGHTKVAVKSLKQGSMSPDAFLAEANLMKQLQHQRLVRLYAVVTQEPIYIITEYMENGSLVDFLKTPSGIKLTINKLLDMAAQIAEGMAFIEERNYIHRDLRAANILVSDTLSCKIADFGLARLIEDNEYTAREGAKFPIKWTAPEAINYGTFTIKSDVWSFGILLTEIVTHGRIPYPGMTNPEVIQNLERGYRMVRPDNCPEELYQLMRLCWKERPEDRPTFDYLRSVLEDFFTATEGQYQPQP

[9] = biological target: Mitogen-activated protein kinase 1 (Homo sapiens, UniProt P28482); test: Selectivity interaction (KinomeScan (DiscoverX)) EUB0000092b MAPK1; settings: at 10 µM
Mitogen-activated protein kinase 1, sequence (P28482 whole entry): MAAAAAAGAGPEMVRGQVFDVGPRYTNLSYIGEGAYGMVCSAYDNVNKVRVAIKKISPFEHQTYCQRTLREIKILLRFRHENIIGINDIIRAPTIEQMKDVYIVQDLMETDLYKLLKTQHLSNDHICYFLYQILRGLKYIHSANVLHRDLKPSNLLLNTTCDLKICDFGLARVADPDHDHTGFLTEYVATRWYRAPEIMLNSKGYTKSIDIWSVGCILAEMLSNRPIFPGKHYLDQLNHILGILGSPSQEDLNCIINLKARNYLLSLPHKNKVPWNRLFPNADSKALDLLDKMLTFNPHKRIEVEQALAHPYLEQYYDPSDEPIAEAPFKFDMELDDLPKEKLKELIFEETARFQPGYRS

Serine/threonine-protein kinase PLK3, sequence (Q9H4B4 whole entry, looked up): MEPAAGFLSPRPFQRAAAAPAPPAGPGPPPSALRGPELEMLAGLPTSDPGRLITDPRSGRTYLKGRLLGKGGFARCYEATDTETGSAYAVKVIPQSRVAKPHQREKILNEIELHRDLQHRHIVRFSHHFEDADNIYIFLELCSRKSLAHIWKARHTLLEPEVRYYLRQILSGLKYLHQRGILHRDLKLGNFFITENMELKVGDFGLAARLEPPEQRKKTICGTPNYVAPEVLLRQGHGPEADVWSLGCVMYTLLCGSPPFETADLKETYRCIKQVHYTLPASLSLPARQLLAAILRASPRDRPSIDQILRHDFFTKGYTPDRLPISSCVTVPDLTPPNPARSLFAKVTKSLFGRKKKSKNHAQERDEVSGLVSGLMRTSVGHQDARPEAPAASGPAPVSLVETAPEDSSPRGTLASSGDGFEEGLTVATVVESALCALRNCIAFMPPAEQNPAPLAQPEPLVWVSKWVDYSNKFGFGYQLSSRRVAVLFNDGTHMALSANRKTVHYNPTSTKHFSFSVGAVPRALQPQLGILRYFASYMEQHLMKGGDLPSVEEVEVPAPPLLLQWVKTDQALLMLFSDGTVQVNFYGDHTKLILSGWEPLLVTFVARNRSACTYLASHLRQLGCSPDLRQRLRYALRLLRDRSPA

SMILES: CCN(CC)CCCCNc1ncc2cc(-c3cc(OC)cc(OC)c3)c(NC(=O)NC(C)(C)C)nc2n1
% of control [1]: 100%

SMILES: CN(C)C/C=C/C(=O)Nc1ccc(C(=O)N2CCCC(Nc3ncc(Cl)c(-c4c[nH]c5ccccc45)n3)C2)cc1 (stereo not given)
% of control [2]: 95%

SMILES: N#Cc1cccc(-c2c[nH]c3ncnc(N4CCOCC4)c23)c1
% of control [3]: 100%

SMILES: C=CC(=O)Nc1cc(-n2c(=O)ccc3cnc4ccc(-c5ccc(NS(C)(=O)=O)cc5)cc4c32)ccc1C
% of control ([4]; at 1 µM): 100%
% of control ([4]; at 10 µM): 54%

SMILES: CCC(=O)N1CCN(c2ccc(-n3c(=O)ccc4cnc5ccc(-c6cnc7ccccc7c6)cc5c43)cc2C(F)(F)F)CC1
% of control [9]: 100%

Further lines, results first:

% of inhibition [5]: 93%
SMILES: Cc1ccc(-c2ccc3c(ccc4sc5c(c43)NC[C@@H](C)NC5=O)n2)cn1

dTM [6]: -2.3 K
SMILES: Cc1cc(CN)cc(C)c1-c1ncn(C)c1-c1cncn1C

IC50 [7]: > 30 µM
SMILES: CCC(=O)N1CC[C@H](Nc2ncnc3c2CN(c2cnc(OC)c(C(F)(F)F)c2)CC3)C1 [LENIOLISIB]

pXC50 [8]: < 4.5 M
SMILES: CCn1c(-c2nc3cc(C(=O)N4CCCC(N)C4)ccc3n2C)cc2ccccc21 (stereo not given)
